Measured values as given in ChEMBL document CHEMBL1201862, “PubChem BioAssay data set” (2004).
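Tested at 5 concentrations; 48 h exposure; 96-well plates; endpoints linearly interpolated, else capped at highest concentration. Here, GI50 denotes the concentration required for 50% inhibition of growth.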 The source made the active and inactive calls. Rule as the data show it: active = GI50 up to about 1.1 µM and inactive = higher.

Assays:
Test in all cases: inhibition of tumour cell growth, NCI panel, 48 h
A549 = tested on: A549
PC-3 = tested on: PC-3
HOP-92 = tested on: HOP-92
OVCAR-4 = tested on: OVCAR-4
LOX IMVI = tested on: LOX IMVI
HCT-116 = tested on: HCT-116
MDA-MB-435 = tested on: MDA-MB-435
OVCAR-5 = tested on: OVCAR-5
K562 = tested on: K562
T47D = tested on: T47D
HL-60 = tested on: HL-60
OVCAR-8 = tested on: OVCAR-8
SF-295 = tested on: SF-295
SK-MEL-2 = tested on: SK-MEL-2
SK-OV-3 = tested on: SK-OV-3
HOP-62 = tested on: HOP-62
786-0 = tested on: 786-0
MOLT-4 = tested on: MOLT-4
UACC-62 = tested on: UACC-62
NCI-H226 = tested on: NCI-H226
HCC 2998 = tested on: HCC 2998
NCI-H522 = tested on: NCI-H522
DU-145 = tested on: DU-145
SK-MEL-5 = tested on: SK-MEL-5
M14 = tested on: M14
MDA-MB-231 = tested on: MDA-MB-231
MCF7 = tested on: MCF7
SK-MEL-28 = tested on: SK-MEL-28
ACHN = tested on: ACHN
SF-539 = tested on: SF-539
CAKI-1 = tested on: CAKI-1
NCI/ADR-RES = tested on: NCI/ADR-RES
HT-29 = tested on: HT-29
CCRF-CEM = tested on: CCRF-CEM
HCT-15 = tested on: HCT-15
SNB-19 = tested on: SNB-19
SF-268 = tested on: SF-268
UACC-257 = tested on: UACC-257
SN12C = tested on: SN12C
NCI-H460 = tested on: NCI-H460
U-251 = tested on: U-251
TK-10 = tested on: TK-10
OVCAR-3 = tested on: OVCAR-3
SW-620 = tested on: SW-620
EKVX = tested on: EKVX
Hs-578T = tested on: Hs-578T
COLO 205 = tested on: COLO 205
A498 = tested on: A498
NCI-H23 = tested on: NCI-H23
SNB-75 = tested on: SNB-75
SR = tested on: SR
Malme-3M = tested on: Malme-3M
IGROV-1 = tested on: IGROV-1
UO-31 = tested on: UO-31
RPMI-8226 = tested on: RPMI-8226
BT-549 = tested on: BT-549
MDA-N = tested on: MDA-N
KM12 = tested on: KM12

Measured: GI50

O=C(Cn1c(=O)oc2ccc(C(=O)c3cccc(Cl)c3)cc21)c1ccccc1
41.2 µM: HCT-15
inactive: A549 27.2 µM | PC-3 > 100 µM | HOP-92 7.14 µM | OVCAR-4 12.8 µM | LOX IMVI > 100 µM | HCT-116 > 10 µM | MDA-MB-435 > 100 µM | OVCAR-5 > 100 µM | K562 57.8 µM | T47D 4.53 µM | HL-60 19.3 µM | OVCAR-8 > 100 µM | SF-295 44.6 µM | SK-MEL-2 67.3 µM | SK-OV-3 42.1 µM | HOP-62 > 100 µM | 786-0 > 10 µM | MOLT-4 49.4 µM | UACC-62 > 100 µM | NCI-H226 40.9 µM | HCC 2998 20.1 µM | NCI-H522 > 100 µM | DU-145 > 100 µM | SK-MEL-5 23.1 µM | M14 > 100 µM | MDA-MB-231 > 100 µM | MCF7 87.9 µM | SK-MEL-28 > 100 µM | ACHN > 100 µM | SF-539 > 100 µM | CAKI-1 > 100 µM | NCI/ADR-RES > 100 µM | HT-29 29.9 µM | CCRF-CEM > 100 µM | SNB-19 > 10 µM | SF-268 > 100 µM | UACC-257 19.5 µM | SN12C > 100 µM | NCI-H460 41.7 µM | U-251 > 100 µM | TK-10 > 100 µM | OVCAR-3 > 100 µM | SW-620 65.6 µM | EKVX 30.1 µM | Hs-578T > 100 µM | COLO 205 33.9 µM | A498 33 µM | NCI-H23 > 100 µM | SNB-75 25.1 µM | SR 36.3 µM | Malme-3M 63 µM | IGROV-1 > 100 µM | UO-31 99.8 µM | RPMI-8226 > 100 µM | BT-549 18.1 µM

C1CC[C@H]2SSC3CCCC[C@H]3SSC2C1 (some centres not stated)
inactive: A549 > 100 µM | PC-3 > 100 µM | HOP-92 > 100 µM | OVCAR-4 > 100 µM | LOX IMVI > 100 µM | HCT-116 > 100 µM | MDA-MB-435 > 100 µM | OVCAR-5 > 100 µM | K562 > 100 µM | T47D > 100 µM | HL-60 > 100 µM | OVCAR-8 > 100 µM | SF-295 > 100 µM | SK-OV-3 > 100 µM | HOP-62 > 100 µM | 786-0 > 100 µM | MOLT-4 > 100 µM | UACC-62 > 100 µM | MDA-N > 100 µM | HCC 2998 > 100 µM | NCI-H522 > 100 µM | DU-145 > 100 µM | SK-MEL-5 > 100 µM | M14 > 100 µM | MDA-MB-231 > 100 µM | MCF7 > 100 µM | SK-MEL-28 > 100 µM | KM12 > 100 µM | SF-539 > 100 µM | NCI/ADR-RES > 100 µM | HT-29 > 100 µM | CCRF-CEM > 100 µM | SNB-19 > 100 µM | SF-268 > 100 µM | UACC-257 > 100 µM | SN12C > 100 µM | NCI-H460 > 100 µM | U-251 > 100 µM | TK-10 > 100 µM | OVCAR-3 > 100 µM | SW-620 > 100 µM | EKVX > 100 µM | COLO 205 > 100 µM | NCI-H23 > 100 µM | SNB-75 > 100 µM | SR > 100 µM | IGROV-1 > 100 µM | UO-31 > 100 µM | RPMI-8226 > 100 µM | BT-549 > 100 µM
> 100 µM: HCT-15
